Experimental data published in patent US20010018440A1, “L-beta-dioxolane uridine analogs and methods for treating and preventing virus infections” (Yale University and The University of Georgia Research …, priority 1996, published 2001).
≈ marks a conversion by molar mass, not a printed value. Entries after “also recorded” stand apart in the source; their conditions may differ. Where two headings read alike, the source gives them in different places. One block for each compound: values may come before it.

Columns and labels:
Ellen strain of VZV = experiment: Plaque reduction assay for Varicella-Zoster virus in HFF cells; type: cell-based; conditions: 10 days
Procedure: (§1) Two days prior to use, human foreskin fibroblast (HiFF) cells were plated into six well plates and incubated at 37° C. with 5% CO2 and 90% humidity. On the date of assay, the drug was made upon MEM with 2% FBS then serially diluted 1:5 in MEM using six concentrations of drug. The initial starting concentration was 100/μg/ml down to 0.03 μg/ml. The virus used for infection was diluted in MEM containing 10% FBS to a desired concentration which gave 20-30 plaques per well. The media was aspirated from the wells and 0.2 ml of virus was added to each well in triplicate with 0.2 ml of media being added to drug toxicity wells. The plates were then incubated for one hour with shaking every fifteen minutes. After incubation, MEM containing the various drug concentrations was added to appropriate wells in a volume of 2.0 ml. Additional media was added again on day five and the cultures incubated for a total of 10 days. At the end of the incubation, the liquid was then aspirated off, stained with 6% neutral red solution for six hours, washed and plaques enumerated using a stereomicroscope. The results are compared with untreated control wells, and EC50 and CC50 values calculated.

[1] = Neutral red uptake cytotoxicity assay; type: cell-based; conditions: human, uninfected human foreskin fibroblast (HFF) cells
Procedure: as §1, with “The results are compared with untreated control wells, and EC50 and CC50 values calculated.” left out

EBV [2] = experiment: Anti-EBV slot blot assay of EBV DNA in H1 cells; type: cell-based, Epstein-Barr virus
Procedure: A high yield of BBV producing cell line H1 derived from human P3HR1 cells was used in this study. Cells were cultured in RPMIf medium supplemented with 10% dialyzed fetal bovine serum and 100 μg/ml Kanamycin and were grown at 37° C. in a humidified incubator containing 5% CO2.
H1 cells were maintained in logarithmic phase of growth for two days prior to the initiation of treatment. The H1 cells were seeded in 24 well plates at the density of 2×10^5 cells per well in 2 ml of fresh medium with or without drug treatment and were incubated at 37° C. for 5 days. Following the period of drug treatment the cells were pelleted and used to determine the inhibitory effect of drug on EBV DNA by slot blot assay.
Autoradiographfic results were anlayzed by densitometry. […] See, for example, Yao, et al., Antimic. Agzents and Chemo., July, 1993, p.

mitochondrial DNA = experiment: mt DNA content (toxicity to mitochondria, slot blot rehybridization); type: cell-based, human
Description: Autoradiographfic results were anlayzed by densitometry. […] See, for example, Yao, et al., Antimic.

cell growth = experiment: Cytotoxicity (cell growth)
[3] = Stability at different pH's (HPLC); conditions: for stability (in words): pH 2
Procedure: In order to explore the possibility of using L-I-OddU and L-Br-OddU orally for the treatment of EBV-associated diseases, its stability at different pH levels is important. L-I-OddU was exposed to different pH solutions as indicated for 3 hr at 37°. The percentage of compound remaining as L-I-OddU was examined using HPLC with a C18 column.

[4] = Pharmacokinetics in BDF1 mice; conditions: 50 mg/kg po versus ip/iv, preliminary
Procedure: At the times indicated in FIG. 5, blood was drawn into a heparinized capillary from the retro orbital plexus of female BDF1 mice. The plasma was separated from the formed elements by centrifugation. Then 100 μl of plasma was mixed with an equal volume of 30% trichloracetic acid and kept on ice for 10 minutes. […] The aqueous phase was moved to a clean tube and extracted again with the trioctylamine:freon mixture. Then 50 μl of the neutralized aqueous phase was injected onto a Perkin Elmer HPLC system. The samples were eluted from an Altech C18 column with an isocratic solvent system of water at 2 ml per min. The concentrations of the unknown samples were determined by comparison with standards of known concentrations.

[5] = tested on: lactate accumulation in the medium; experiment: Lactate accumulation in medium of drug treated cultures
HBV = HBV assay; type: cell-based
Description: (§2) Plaque reduction assays used for HSV-1, HSV-2 and CMV have been previously described. See, Gao, et al., Antimic. Agents and Chemo., May, 1990, p. 808-812 (HSV-Plaque); Cheng, et al., Proc. Natl. Acad. Sci. USA, vol. 80, 2767-2770 (May 1983) (CMV plaque reduction assay). The methods for testing against EBV, HBV, and HIV were also used as described previously. See, Yao, et al., Antimic. Agents and Chemo., July, 1993, p.

EBV [6] = conditions: reported in Chu et al. PCT application; cited from earlier work
HSV-1 = experiment: Plaque reduction assay HSV-1; type: cell-based; conditions: Human alphaherpesvirus 1; HSV-1, plaque reduction
Description: as §2

HSV-2 = experiment: Plaque reduction assay HSV-2; type: cell-based; conditions: Human alphaherpesvirus 2; HSV-2, plaque reduction
Description: as §2

CMV = experiment: Plaque reduction assay CMV; type: cell-based; conditions: Human betaherpesvirus 5
Description: as §2

HIV = HIV assay; type: cell-based; conditions: Human immunodeficiency virus 1
Description: as §2

[7] = Human alphaherpesvirus 3, 240 h, read-out: EC50
[8] = H1 cells, 5 days, EC50 of Table 2
[9] = human gammaherpesvirus 4, 120 h, H1 cells, 5 days, EC50 of Table 2, read-out: Anti-EBV EC50
[10] = H1 cells, 5 days, EC50 of Table 2, read-out: Anti-EBV EC50
[11] = read-out: Cytotoxicity IC50, cell growth

Compound: Nc1nc2c(ncn2COCCO)c(=O)[nH]1 [ACV (acycloguanine), acyclovir, reference compound]
EC50 (Ellen strain of VZV; [7]): 0.6 µg/mL (≈ 2.66 µM) | CC50 at 10 days [1]: > 100 µg/mL

Compound: O=c1[nH]c(=O)n(C2COC(CO)O2)cc1Br [D-Br-OddU, reference compound]
Anti-EBV EC50 (EBV [2]; [8]): Inactive

Compound: O=c1[nH]c(=O)n(C2COC(CO)O2)cc1I [D-I-OddU, reference compound]
Anti-EBV EC50 (EBV [2]; [8]): Inactive

Compound: Nc1nc(O)c2ncn(COC(CO)CO)c2n1 [DHPG, gancyclovir, reference compound]
EC50 (EBV [2]; [9]): 5 µM | mt DNA Content ID50 (mitochondrial DNA): Inactive | IC50 (cell growth; human, H1 cells): 75 µM

Compound: O=c1[nH]c(=O)n([C@@H]2CO[C@H](CO)O2)cc1Br [L-Br-OddU]
anti-EBV activity (in words) (EBV [2]): most potent | EC50 (EBV [2]; [10]): 0.2 µM | EC50 (EBV [2]; H1 cells, 5 days, second EC50 column of Table 2, read-out: Anti-EBV EC50): 2 µM | mt DNA Content ID50 (mitochondrial DNA): Inactive | % Remaining ([3]; pH1, 3 hr at 37°): 105% | stability (in words) [3]: stable | EC50 (Ellen strain of VZV): 0.8 µg/mL (≈ 2.73 µM) | IC50 (cell growth; [11]): > 100 µM | efficiency of oral uptake [4]: about 60% | induction of lactate accumulation in the medium [5]: lack of induction

Compound: O=c1[nH]c(=O)n([C@@H]2CO[C@H](CO)O2)cc1C(F)(F)F [L-CF3-OddU, (2S,4S)-1-[2-(Etydroxymethyl)-1,3-dioxolan-4-yl]-5-trifluoromethyluracil]
EC50 (EBV [2]; [10]): 3 µM | mt DNA Content ID50 (mitochondrial DNA): Inactive | IC50 (cell growth; [11]): > 100 µM

Compound: O=c1[nH]c(=O)n([C@@H]2CO[C@H](CO)O2)cc1Cl [L-CI-OddU, (2S,4S)-1-[2-(Hydroxymethyl)-1,3-dioxolan-4-yl]-5-chlorouracil]
EC50 (EBV [2]; [9]): 3 µM | mt DNA Content ID50 (mitochondrial DNA): Inactive | EC50 (Ellen strain of VZV; [7]): 27.9 µg/mL (≈ 112 µM) | CC50 at 10 days [1]: > 100 µg/mL | IC50 (cell growth; human, H1 cells): > 100 µM

Compound: Cc1cn([C@H]2O[C@@H](CO)[C@H](O)[C@H]2F)c(=O)[nH]c1=O [L-FMAU, 2′-fluoro-5-methyl-β-L-arabinofuranosyluridine, reference compound]
anti-EBV activity (in words) (EBV [2]): active | activity against HBV (in words) (HBV): active | activity against EBV (PCT/US95/01253) (EBV [6]): good activity

Continued, in another order:

EC50 (EBV [2]; [9]): 50 µM
Compound: O=c1[nH]c(=O)n([C@@H]2CO[C@H](CO)O2)cc1F [L-F-OddU, (2S,4S)-1-[2-(Hydroxymethyl)-1,3-dioxolan-4-yl]-5 fluorouracil]
mt DNA Content ID50 (mitochondrial DNA): Inactive | IC50 (cell growth; human, H1 cells): > 100 µM

EC50 against EBV relative to L-FMAU (EBV [2]; comparison with L-FMAU): at least four times lower than L-FMAU | EC50 (EBV [2]; [9]): 0.1 µM | EC50 (EBV [2]; human gammaherpesvirus 4, 120 h, H1 cells, 5 days, second EC50 column of Table 2, read-out: Anti-EBV EC50): 0.4 µM | EC50 (EBV [2]; human gammaherpesvirus 4, EBV, Table 3, read-out: EC50): 0.1 µM | EC50 (HSV-1): 50 µM | EC50 (HSV-2): > 50 µM | EC50 (CMV): > 10 µM | EC50 (HBV; Hepatitis B virus, HBV): > 10 µM | EC50 (HIV): > 100 µM | % Remaining ([3]; pH1, 3 hr at 37°): 102% | stability (in words) [3]: stable | % Remaining ([3]; pH2, 3 hr at 37°): 102% | % Remaining ([3]; pH5, 3 hr at 37°): 102% | % Remaining ([3]; pH7, 3 hr at 37°): 99% | % Remaining ([3]; pH9, 3 hr at 37°): 100% | EC50 (Ellen strain of VZV; [7]): 4.2 µg/mL (≈ 12.4 µM) | induction of lactate accumulation in the medium [5]: lack of induction
Compound: O=c1[nH]c(=O)n([C@@H]2CO[C@H](CO)O2)cc1I [L-I-OddU, (2S,4S)-1-[2-(Hydroxymethyl)-1,3-dioxolan-4-yl]-5-iodouracil]
anti-EBV activity (in words) (EBV [2]): most potent; also recorded: slightly more potent than L-Br-OddU | mt DNA Content ID50 (mitochondrial DNA): Inactive | activity against HBV (in words) (HBV): little activity | CC50 at 10 days [1]: > 100 µg/mL | IC50 (cell growth; human, H1 cells): > 100 µM

EC50 (EBV [2]; [9]): > 50 µM
Compound: O=c1ccn([C@@H]2CO[C@H](CO)O2)c(=O)[nH]1 [L-OddU, (2S,4S)-1-[2-(Hydroxymethyl)-1,3-dioxolan-4-yl]uracil]
mt DNA Content ID50 (mitochondrial DNA): Inactive | IC50 (cell growth; human, H1 cells): > 100 µM

Anti-EBV EC50 (EBV [2]; [8]): Inactive
Compound: Nc1ccn([C@H]2CC[C@@H](CO)O2)c(=O)n1 [ddC, reference compound]
IC50 (mitochondrial DNA; read-out: mt DNA Content ID50): 0.02 µM | IC50 (cell growth; [11]): 20 µM
